Test results reported in EP1956033A1, “Acrylimides with initiator characteristics” (Mondi Release Liner Austria GmbH, priority 2007, dated 2008).

Columns and labels:
[1] = Test for initiator properties: photopolymerisation of HDDA with the acrylimide added as initiator; settings: approx. 6 mol-% imido groups in HDDA, 250-450 nm, 900 mW/cm^2; for DBC: double bond conversion from heat of polymerisation; for Rate: mean polymerisation rate of the mixture, means of multiple determinations; for tmax: time to exotherm maximum (maximum polymerisation rate)
From the text: Dabei wurden die üblichen Polymerisationsparameter aufgezeichnet, und die Ergebnisse sind (als Mittelwerte von […]) in […] gibt die "Rate" die […]) des jeweiligen […] an. "DBC" ("double bond conversion"; in %) […] aus der Polymerisationswä[…] an polymerisierten Doppelbindungen, bezogen auf die […], und "tmax" ist die bis zum Erreichen des […]. bis zur […]) erforderliche Zeit (in s). Zusätzlich sind der Gehalt der jeweiligen Verbindung in HDDA in Gew.-% und in Mol-% sowie der Gehalt an Acrylimidogruppen in Mol-% angegeben. Tabelle 1

[2] = Test under self-initiation: irradiation and polymerisation in bulk without additional initiator; set-up: Rate: unit not given here; settings: for DBC / Rate / tmax: 100 wt-% compound, in bulk, no additional initiator; for Polymerisationsraten in Substanz gegenüber Verwendung als Initiatoren für HDDA (Faktor): ratio of rate in bulk to rate of the same compound as initiator in HDDA
[3] = Preliminary tests of the inventors on di(meth)acrylated carboxamides (reactivity / initiator properties)
From the text: Da sich in der Literatur keine Hinweise auf derartige Eigenschaften von Di(meth)-acrylamiden fanden, zielten Vorversuche der Erfinder auf Triacylamide ab, in denen zwei der Acylgruppen (Meth)acrylgruppen waren.

Row | Compound | DBC [1] | Rate [1] | tmax [1] | DBC [2] | Rate [2] | tmax [2] | Polymerisationsraten in Substanz gegenüber Verwendung als Initiatoren für HDDA (Faktor) [2] | Reaktivität / Initiatoreigenschaften [3]
1 | C=CC(=O)N(CCC)C(=O)C=C [[12], N-Propylacrylimid] | 82,6% | 29,8 10^3 mol/l.s. | 159,6 s | 95,2% | 196,3 | 20,4 s | – | –
2 | C=CC(=O)N(CCCCCC)C(=O)C=C [[13], N-Hexylacrylimid] | 80,2% | 28,5 10^3 mol/l.s. | 159,9 s | 92,7% | 170,0 | 21,3 s | – | –
3 | C=CC(=O)N(CC(CC)CCCC)C(=O)C=C (stereo not drawn) [[14], N-2-Ethylhexylacrylimid] | 80,9% | 28,3 10^3 mol/l.s. | 157,1 s | 89,1% | 164,8 | 21,8 s | – | –
4 | C=CC(=O)N(CCN(CC)CC)C(=O)C=C [[15], N-(2-Diethylaminoethyl)acrylimid] | 80,2% | 27,7 10^3 mol/l.s. | 160,8 s | 90,3% | 167,4 | 20,9 s | – | –
5 | C=CC(=O)N(CCCCCCN(C(=O)C=C)C(=O)C=C)C(=O)C=C [[16], N,N'-(1,6-Hexylen)bisacrylimid] | 75,7% | 20,6 10^3 mol/l.s. | 162,4 s | – | – | – | – | –
6 | C=CC(=O)N(CCC(C)(C)CC(C)CN(C(=O)C=C)C(=O)C=C)C(=O)C=C (stereo not drawn) [[17], N,N'-(2,4,4-Trimethyl-1,6-hexylen)bisacrylimid] | 75,3% | 20,2 10^3 mol/l.s. | 165,0 s | 78,9% | 42,6 | 19,5 s | ~2 | –
7 | C=CC(=O)N(CC1CCCC(CN(C(=O)C=C)C(=O)C=C)C1)C(=O)C=C (stereo not drawn) [[18], N,N'-(1,3-Cyclohexylendimethylen)bisacrylimid] | 73,6% | 19,1 10^3 mol/l.s. | 167,5 s | – | – | – | – | –
8 | C=CC(=O)N(CCCCCCCCCCCCN(C(=O)C=C)C(=O)C=C)C(=O)C=C [[19], N,N'-(1,12-Dodecylen)bisacrylimid] | 76,8% | 20,9 10^3 mol/l.s. | 163,9 s | – | – | – | – | –
9 | C=CC(=O)N(CCOCCOCCN(C(=O)C=C)C(=O)C=C)C(=O)C=C [[20], N,N'-(3,6-Dioxa-1,8-octylen)bisacrylimid] | 74,8% | 21,2 10^3 mol/l.s. | 171,2 s | – | – | – | – | –
10 | C=CC(=O)N(CCC[Si](C)(C)O[Si](C)(C)CCCN(C(=O)C=C)C(=O)C=C)C(=O)C=C [[21], N,N'-(4,6-Disila-5-oxa-4,4,6,6-tetramethyl-1,9-nonylen)bisacrylimid] | 78,2% | 23,4 10^3 mol/l.s. | 153,0 s | 80,2% | – | 19,2 s | ~2 | –
11 | C=CC(=O)N(CCN(CCN(C(=O)C=C)C(=O)C=C)CCN(C(=O)C=C)C(=O)C=C)C(=O)C=C [[22], Tris(2-acrylimidoethyl)amin] | 72,4% | 17,8 10^3 mol/l.s. | 182,2 s | 73,5% | 38,1 | 16,8 s | ~2 | –
12 | Diacrylpropionamid | – | – | – | – | – | – | – | mäßig reaktive Monomere ohne Initiatoreigenschaften
